In one assay the test system is B16V mouse melanoma cells. Nature of the assay: Depigmenting effect on melanoma cell cultures (inhibition of pigmentation). Type of assay: cell-based. The note with it: 96 h, read-out: IC50 (concentration at which pigmentation is inhibited by 50%). How it is done:
B16V mouse melanoma cells are disseminated in a 96-well microtitre plate in a concentration of 5×10^3 cells/well. After cultivation for 24 h at 37° C. and 5% CO2 in RPMI medium, enriched with 10% foetal calf serum, various concentrations of the test substances and 0.3 mM tyrosine and 10 nM α-MSH (α-melanocyte stimulating hormone) are added and incubated for a further 96 h. The maximum concentration of the test substances used corresponds to 0.1 times the value of the IC20 value of the cytotoxicity assay. Standards are incubated with kojic acid in concentrations of 0.01 mM, 0.1 mM and 1 mM in addition to tyrosine and α-MSH. Only tyrosine and α-MSH are added to the controls. After incubation, sodium lauryl sulfate and sodium hydroxide solution (final concentrations: 1 mM and 1 M respectively) are added to the culture medium and the absorption (A) is measured after 3 h at 400 nm.
The inhibition of pigmentation in the presence of the test compounds or kojic acid was calculated using the following equation: Inhibition of pigmentation (%)=100−[(Atest compound/Acontrol)×100] wherein
Atest compound=absorption of the wells with test substance and with cells
Acontrol=absorption of the wells without test substance, but with cells
From the inhibition of pigmentation (%) in a series of dilutions of test compounds, the IC50 for each test compound is calculated. This is the concentration of a test compound at which pigmentation is inhibited by 50%.
In the case of `CCNC(=O)OC1CC(C)CC(C)(C)C1` (centres unmarked) [BIO1572, Ethyl-carbamic acid 3,3,5-trimethyl-cyclohexyl ester], the IC50 is 63.1 µM.

In the case of `CCNC(=O)OC1CC2CCC1(C)C2(C)C` (centres unmarked) [BIO1573, Ethyl-carbamic acid 1,7,7-trimethyl-bicyclo[2.2.1]hept-2-yl ester], the IC50 was found to be 74.9 µM.

Turning to `COCCCNC(=O)OC1CC(C)CC(C)(C)C1` (centres unmarked) [BIO1574, (3-Methoxy-propyl)-carbamic acid 3,3,5-trimethyl-cyclohexyl ester], the IC50 is 9.5 µM.

The assay is the same for the next values; noted with them: B16V cells, 0.3 mM tyrosine and 10 nM α-MSH, 96 h incubation, absorption at 400 nm, read-out: IC50 (concentration at which pigmentation is inhibited by 50%).
As for `C=C(C)C1CCC(C)CC1OC(=O)NCC` (centres unmarked) [BIO1551, Ethyl-carbamic acid 2-isopropenyl-5-methyl-cyclohexyl ester], the IC50 came out at 40.9 µM.

For `CCNC(=O)OC1CC(C)CC(C)C1` (centres unmarked) [BIO1561, Ethyl-carbamic acid 3,5-dimethyl-cyclohexyl ester], the IC50 worked out at 32.7 µM.

Turning to `C=C(C)C1CCC(C)CC1OC(=O)NCCCC` (centres unmarked) [BIO1615, Butyl-carbamic acid 2-isopropenyl-5-methyl-cyclohexyl ester], the IC50 was found to be 43 µM.

`CCCCNC(=O)OC1CC(C)CC(C)(C)C1` (centres unmarked) [BIO1616, n-Butyl-carbamic acid 3,3,5-trimethyl-cyclohexyl ester]: the IC50 turned out to be 10.9 µM.

Take `CCCCNC(=O)OC1C(C)CCC(C)C1C` (centres unmarked) [BIO1617, n-Butyl-carbamic acid 2,3,6-trimethyl-cyclohexyl ester]: the IC50 worked out at 15.4 µM.

For `CC1CC(OC(=O)Nc2ccccc2O)CC(C)(C)C1` (centres unmarked) [BIO1642, (2-Hydroxy-phenyl)-carbamic acid 3,3,5-trimethyl-cyclohexyl ester], the IC50 is 5.6 µM.

As for `CC1CCCC(OC(=O)Nc2ccccc2O)C1C` (centres unmarked) [BIO1643, (2-Hydroxy-phenyl)-carbamic acid 2,3-dimethyl-cyclohexyl ester], the IC50 was found to be 0.7 µM.

With `CC(C)C1CCCCC1OC(=O)Nc1ccccc1O` (centres unmarked) [BIO1646, (2-Hydroxy-phenyl)-carbamic acid 2-isopropyl-cyclohexyl ester], the IC50 turned out to be 4.7 µM.

Consider `CC1CC(C)CC(OC(=O)Nc2ccccc2)C1` (centres unmarked) [BIO1685, Phenyl-carbamic acid 3,5-dimethyl-cyclohexyl ester], for which the IC50 turned out to be 18.9 µM.

With `CC1CCCCC1NC(=O)OC1CCC(C(C)(C)C)CC1` (centres unmarked) [BIO1690, (2-Methyl-cyclohexyl)-carbamic acid 4-tert-butyl-cyclohexyl ester], the IC50 worked out at 10.9 µM.

`CCN(CC)C(=O)OC1C(C)CCC(C)C1C` (centres unmarked) [BIO1692, Diethyl-carbamic acid 2,3,6-trimethyl-cyclohexyl ester]: the IC50 amounted to 41.7 µM.

Turning to `CCN(CC)C(=O)OC1CCCCC1C(C)C` (centres unmarked) [BIO1694, Diethyl-carbamic acid 2-isopropyl-cyclohexyl ester], the IC50 stood at 38.5 µM.

Regarding `COc1ccccc1NC(=O)OC1C(C)CCC(C)C1C` (centres unmarked) [BIO1701, (2-Methoxy-phenyl)-carbamic acid 2,3,6-trimethyl-cyclohexyl ester], the IC50 amounted to 10.2 µM.

On to `COc1ccccc1NC(=O)OC1CC(C)CC(C)(C)C1` (centres unmarked) [BIO1703, (2-Methoxy-phenyl)-carbamic acid 3,3,5-trimethyl-cyclohexyl ester], for which the IC50 amounted to 25.1 µM.

Regarding `CCCC1CCC(OC(=O)NCCCC(OCC)OCC)CC1` (centres unmarked) [BIO1707, (4,4-Diethoxy-butyl)-carbamic acid 4-propyl-cyclohexyl ester], the IC50 came out at 12.7 µM.

As to `CC(C)(C)C1CCCCC1OC(=O)Nc1ccccc1` (centres unmarked) [BIO1740, Phenyl-carbamic acid 2-tert-butyl-cyclohexyl ester], the IC50 turned out to be 5.5 µM.

In the case of `O=C(Nc1ccccc1)OC1CCCCC1` [BIO1741, Phenyl-carbamic acid cyclohexyl ester], the IC50 was determined as 12.9 µM.

Turning to `COc1ccccc1NC(=O)OC1CCCCC1C(C)C` (centres unmarked) [BIO1744, (2-Methoxy-phenyl)-carbamic acid 2-isopropyl-cyclohexyl ester], the IC50 amounted to 18.3 µM.

As to `Cc1ccc(NC(=O)OC2CC(C)CC(C)C2)cc1` (centres unmarked) [BIO1822, p-Tolyl-carbamic acid 3,5-dimethyl-cyclohexyl ester], the IC50 is 52.5 µM.

On to `Cc1ccc(NC(=O)OC2CCCCC2C(C)C)cc1` (centres unmarked) [BIO1824, p-Tolyl-carbamic acid 2-isopropyl-cyclohexyl ester], for which the IC50 was 4.7 µM.

As to `Cc1ccc(NC(=O)OC2CCCC(C)C2)cc1` (centres unmarked) [BIO1825, p-Tolyl-carbamic acid 3-methyl-cyclohexyl ester], the IC50 worked out at 72.5 µM.

For the compound `CCCCNC(=O)OC1CC(C)CC(C)C1` (centres unmarked) [BIO1840, n-Butyl-carbamic acid 3,5-dimethyl-cyclohexyl ester], the IC50 amounted to 89.5 µM.

`CCCCNC(=O)OC1CCCCC1C(C)C` (centres unmarked) [BIO1841, Butyl-carbamic acid 2-isopropyl-cyclohexyl ester]: the IC50 came out at 28.5 µM.

Regarding `CCCCNC(=O)OC1CCCC(C)C1C` (centres unmarked) [BIO1842, Butyl-carbamic acid 2,3-dimethyl-cyclohexyl ester], the IC50 turned out to be 94.1 µM.

Turning to `CCC(C)NC(=O)OC1CC(C)CC(C)(C)C1` (centres unmarked) [BIO1844, sec-Butyl-carbamic acid 3,3,5-trimethyl-cyclohexyl ester], the IC50 was determined as 219 µM.

On to `CCCCCCNC(=O)OC1CC(C)CC(C)(C)C1` (centres unmarked) [BIO1850, n-Hexyl-carbamic acid 3,3,5-trimethyl-cyclohexyl ester], for which the IC50 is 14.3 µM.

With `OC[C@H]1O[C@@H](Oc2ccc(O)cc2)[C@H](O)[C@@H](O)[C@@H]1O` [beta-Arbutin, reference compound], the IC50 stood at 67 µM.

Another assay has as its system Pigmented pig skin. Nature of the assay: Depigmenting effect on ex vivo skin (melanin granules, Fontana-Masson stain, image analysis). Conditions: 0.5 wt.% in O/W emulsion, applied topically, 6 days. In kind it is tissue-based. How it is done: Pigmented pig skin was excised from animals (slaughtered for meat production; the pig skin model included the subcutis fat layer as described in EP 1 939 27), cut into 4×4×3 mm pieces (length×width×height) and placed in culture at the air-liquid interface on a sterilized cotton pad soaked with 5 ml of customized DMEM (Dulbecco's Modified Eagle Medium). Assays were started 24 h after sample acclimatization at 37° C., 5% CO2. O/W emulsions (as described in more detail below) without (=control) and with the test compounds, respectively, were applied topically and incubated for 6 days. Histological sections were prepared and melanin granules stained by Fontana-Masson technique. The granules were quantified by image analysis.
The O/W emulsions used had the following composition:
Phases A and B are heated to 70° C. separately. Pemulen TR1 as well as Ultrez-21 are dispersed in phase B when heated to 70° C. Phase B/C is added to phase A by mixing with an Ultra Turrax, followed by emulsifying. Phase D is slowly added to phase A/B/C using a paddle mixer and a pH 5.5-6 is adjusted. The formulation is cooled down while mixing with a paddle mixer. Phase E is prepared by dissolving one or more compounds of formula (I) in Hydrolite-5. Subsequently, phase E is added to the mixture of phase A-D.
Take `CC1CCCC(OC(=O)Nc2ccccc2O)C1C` (centres unmarked) [BIO1643, (2-Hydroxy-phenyl)-carbamic acid 2,3-dimethyl-cyclohexyl ester]: the “Melanin score vs. Control” value is on record as −26%.

In the case of `COc1ccccc1NC(=O)OC1CC(C)CC(C)(C)C1` (centres unmarked) [BIO1703, (2-Methoxy-phenyl)-carbamic acid 3,3,5-trimethyl-cyclohexyl ester], the “Melanin score vs. Control” value is recorded as −37%.

The same assay, now with this note: 1 wt.% in O/W emulsion, applied topically, 6 days.
For the compound `CCNC(=O)OC1CC(C)CC(C)C1` (centres unmarked) [BIO1561, Ethyl-carbamic acid 3,5-dimethyl-cyclohexyl ester], the “Melanin score vs. Control” value is reported as −26%.

For the compound `O=C(Nc1ccccc1)OC1CCCCC1` [BIO1741, Phenyl-carbamic acid cyclohexyl ester], the “Melanin score vs. Control” value is reported as −28%.

For the compound `Cc1ccc(NC(=O)OC2CCCCC2C(C)C)cc1` (centres unmarked) [BIO1824, p-Tolyl-carbamic acid 2-isopropyl-cyclohexyl ester], the “Melanin score vs. Control” value is on record as −44%.

The values above are taken from patent publication US9072676B2, “Cyclohexyl carbamate compounds as skin and/or hair lightening actives” (SYMRISE AG, priority 2010, dated 2015).
